Reference: PubChem BioAssay (NCI)
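Method: 48-hour compound exposure of cells in 96-well plates, five concentrations, linear interpolation of endpoints. TGI denotes the concentration required for complete inhibition of growth.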

Key:
Assay in all cases: NCI tumour cell line growth inhibition, 48 h
786-0 renal = system: 786-0 renal
A498 renal = system: A498 renal
A549 NSCLC = system: A549 NSCLC
ACHN renal = system: ACHN renal
BT-549 breast = system: BT-549 breast
CAKI-1 renal = system: CAKI-1 renal
CCRF-CEM leukemia = system: CCRF-CEM leukemia
COLO 205 colon = system: COLO 205 colon
DU-145 prostate = system: DU-145 prostate
EKVX NSCLC = system: EKVX NSCLC
HCC-2998 colon = system: HCC-2998 colon
HCT-116 colon = system: HCT-116 colon
HCT-15 colon = system: HCT-15 colon
HL-60(TB) leukemia = system: HL-60(TB) leukemia
HOP-62 NSCLC = system: HOP-62 NSCLC
HOP-92 NSCLC = system: HOP-92 NSCLC
HS 578T breast = system: HS 578T breast
HT29 colon = system: HT29 colon
IGROV1 ovarian = system: IGROV1 ovarian
K-562 leukemia = system: K-562 leukemia
KM12 colon = system: KM12 colon
LOX IMVI melanoma = system: LOX IMVI melanoma
M14 melanoma = system: M14 melanoma
MALME-3M melanoma = system: MALME-3M melanoma
MCF7 breast = system: MCF7 breast
MDA-MB-231 breast = system: MDA-MB-231 breast
MDA-MB-435 = system: MDA-MB-435
MDA-N = system: MDA-N
MOLT-4 leukemia = system: MOLT-4 leukemia
NCI-H226 lung = system: NCI-H226 lung
NCI-H23 lung = system: NCI-H23 lung
NCI-H460 lung = system: NCI-H460 lung
NCI-H522 lung = system: NCI-H522 lung
NCI/ADR-RES ovarian = system: NCI/ADR-RES ovarian
OVCAR-3 ovarian = system: OVCAR-3 ovarian
OVCAR-4 ovarian = system: OVCAR-4 ovarian
OVCAR-5 ovarian = system: OVCAR-5 ovarian
OVCAR-8 ovarian = system: OVCAR-8 ovarian
PC-3 prostate = system: PC-3 prostate
RPMI-8226 leukemia = system: RPMI-8226 leukemia
RXF 393 renal = system: RXF 393 renal
SF-268 CNS = system: SF-268 CNS
SF-295 CNS = system: SF-295 CNS
SF-539 CNS = system: SF-539 CNS
SK-MEL-2 melanoma = system: SK-MEL-2 melanoma
SK-MEL-28 melanoma = system: SK-MEL-28 melanoma
SK-MEL-5 melanoma = system: SK-MEL-5 melanoma
SK-OV-3 ovarian = system: SK-OV-3 ovarian
SN12C renal = system: SN12C renal
SNB-19 CNS = system: SNB-19 CNS
SNB-75 CNS = system: SNB-75 CNS
SR leukemia = system: SR leukemia
SW-620 colon = system: SW-620 colon
T-47D breast = system: T-47D breast
TK-10 renal = system: TK-10 renal
U251 CNS = system: U251 CNS
UACC-257 melanoma = system: UACC-257 melanoma
UACC-62 melanoma = system: UACC-62 melanoma
UO-31 renal = system: UO-31 renal
DLD-1 colon = system: DLD-1 colon
DMS 114 small cell lung = system: DMS 114 small cell lung
DMS 273 small cell lung = system: DMS 273 small cell lung
KM20L2 colon = system: KM20L2 colon
LXFL 529 NSCLC = system: LXFL 529 NSCLC
M19-MEL melanoma = system: M19-MEL melanoma
SNB-78 CNS = system: SNB-78 CNS

Measured: TGI

CCOC1SC(SC)=NN1C(=O)C(OC(C)=O)C(OC(C)=O)C(OC(C)=O)C(OC(C)=O)C(=O)N1N=C(SC)SC1OCC (stereo unspecified)
96.2 µM: HS 578T breast
> 100 µM: 786-0 renal | A498 renal | A549 NSCLC | ACHN renal | BT-549 breast | CAKI-1 renal | CCRF-CEM leukemia | COLO 205 colon | DU-145 prostate | EKVX NSCLC | HCC-2998 colon | HCT-116 colon | HCT-15 colon | HL-60(TB) leukemia | HOP-62 NSCLC | HOP-92 NSCLC | HT29 colon | IGROV1 ovarian | K-562 leukemia | KM12 colon | LOX IMVI melanoma | M14 melanoma | MALME-3M melanoma | MCF7 breast | MDA-MB-231 breast | MDA-MB-435 | MDA-N | MOLT-4 leukemia | NCI-H226 lung | NCI-H23 lung | NCI-H460 lung | NCI-H522 lung | NCI/ADR-RES ovarian | OVCAR-3 ovarian | OVCAR-4 ovarian | OVCAR-5 ovarian | OVCAR-8 ovarian | PC-3 prostate | RPMI-8226 leukemia | RXF 393 renal | SF-268 CNS | SF-295 CNS | SF-539 CNS | SK-MEL-2 melanoma | SK-MEL-28 melanoma | SK-MEL-5 melanoma | SK-OV-3 ovarian | SN12C renal | SNB-19 CNS | SNB-75 CNS | SR leukemia | SW-620 colon | T-47D breast | TK-10 renal | U251 CNS | UACC-257 melanoma | UACC-62 melanoma | UO-31 renal

O=C(O)/C=C\C(=O)Nc1ccc2c(c1)C(=O)c1cc(F)ccc1-2
> 100 µM: 786-0 renal | A498 renal | A549 NSCLC | ACHN renal | BT-549 breast | CAKI-1 renal | CCRF-CEM leukemia | COLO 205 colon | DU-145 prostate | EKVX NSCLC | HCT-116 colon | HCT-15 colon | HL-60(TB) leukemia | HOP-62 NSCLC | HOP-92 NSCLC | HS 578T breast | HT29 colon | IGROV1 ovarian | K-562 leukemia | KM12 colon | LOX IMVI melanoma | M14 melanoma | MALME-3M melanoma | MCF7 breast | MDA-MB-231 breast | MDA-MB-435 | MDA-N | MOLT-4 leukemia | NCI-H226 lung | NCI-H23 lung | NCI-H460 lung | NCI-H522 lung | NCI/ADR-RES ovarian | OVCAR-3 ovarian | OVCAR-4 ovarian | OVCAR-5 ovarian | OVCAR-8 ovarian | PC-3 prostate | RPMI-8226 leukemia | RXF 393 renal | SF-268 CNS | SF-295 CNS | SF-539 CNS | SK-MEL-2 melanoma | SK-MEL-28 melanoma | SK-MEL-5 melanoma | SK-OV-3 ovarian | SN12C renal | SNB-19 CNS | SNB-75 CNS | SR leukemia | SW-620 colon | T-47D breast | TK-10 renal | U251 CNS | UACC-257 melanoma | UACC-62 melanoma | UO-31 renal

Cc1cc(-c2ccccc2)cc2[n+]1CC=C2
> 100 µM: 786-0 renal | A549 NSCLC | ACHN renal | CAKI-1 renal | COLO 205 colon | DLD-1 colon | DMS 114 small cell lung | DMS 273 small cell lung | EKVX NSCLC | HCC-2998 colon | HCT-116 colon | HL-60(TB) leukemia | HOP-62 NSCLC | HT29 colon | KM12 colon | KM20L2 colon | LOX IMVI melanoma | LXFL 529 NSCLC | M14 melanoma | M19-MEL melanoma | MALME-3M melanoma | NCI-H226 lung | NCI-H23 lung | NCI-H460 lung | NCI-H522 lung | OVCAR-4 ovarian | OVCAR-5 ovarian | OVCAR-8 ovarian | SF-268 CNS | SF-295 CNS | SF-539 CNS | SK-MEL-2 melanoma | SK-MEL-28 melanoma | SN12C renal | SNB-19 CNS | SNB-75 CNS | SNB-78 CNS | SW-620 colon | TK-10 renal | U251 CNS | UACC-257 melanoma | UO-31 renal
97.6 µM: RXF 393 renal
94.8 µM: HOP-92 NSCLC

Cc1ccc(C(=O)NC(C)(C)C)cc1N=NN(C)C
> 100 µM: 786-0 renal | A549 NSCLC | ACHN renal | CAKI-1 renal | DLD-1 colon | DMS 273 small cell lung | EKVX NSCLC | HCC-2998 colon | HCT-116 colon | HCT-15 colon | HOP-62 NSCLC | HOP-92 NSCLC | HT29 colon | IGROV1 ovarian | KM12 colon | KM20L2 colon | LOX IMVI melanoma | LXFL 529 NSCLC | M14 melanoma | NCI-H23 lung | NCI-H460 lung | NCI-H522 lung | OVCAR-3 ovarian | OVCAR-4 ovarian | OVCAR-8 ovarian | SF-268 CNS | SF-295 CNS | SF-539 CNS | SK-MEL-2 melanoma | SK-MEL-28 melanoma | SK-MEL-5 melanoma | SN12C renal | SNB-19 CNS | SNB-78 CNS | SW-620 colon | TK-10 renal | U251 CNS | UACC-257 melanoma | UACC-62 melanoma | UO-31 renal
